Results as given in patent US5773442A, “Benzamidine derivatives and pharmaceutical composition containing them” (Yamanouchi Pharmaceutical Co., Ltd., priority 1995, dated 1998).

Experiments:
GPIIb/IIIa = target: T1, GPIIb/IIIa (Homo sapiens, UniProt P05106+P08514); assay: Bonding of fibrinogen to pure GPIIb/IIIa; format: binding; details: biotinated fibrinogen, 37° C., 3 hours
T1 construct: GPIIb/IIIa was purified according to a Fitzgerald et al's method; from tissue; host or cells: platelets (human, inferred from the cited Fitzgerald method)
Protocol: Bonding of fibrinogen to pure GPIIb/IIIa: GPIIb/IIIa was purified according to a Fitzgerald et al's method. Fibrinogen was biotinated with NHS-LC-Biotin (manufactured by Pierce Co.). The pure GPIIb/IIIa was added to TBS (20 mM Tris-HCl, pH 7.4, 150 mM NaCl, 1 mM CaCl2, 1 mM MgCl2) at one μg/ml. 100 μl of the resulting solution was put into a 96-well plate (MaxiSorp™, manufactured by Nunc Co.) and left at 4° C. overnight. […] After the solution was removed, a sample compound to be tested and the biotinated fibrinogen were added to the plate and reacted at 37° C. for 3 hours. […] This was washed three times with 300 μl of T-TBS.

[1] = system: platelet aggregation (PRP; ADP and collagen as triggers); assay: Ex vivo platelet aggregation-inhibiting activity in cynomolgus monkeys; details: 3 mg/kg via stomach tube, 20 μM ADP and 10 μg/ml collagen, mean ± SEM (n = 3)
Protocol: Ex vivo platelet aggregation-inhibiting activity in cynomolgus monkeys:
Cynomolgus monkeys that had been lightly anesthetized by intramuscular administration of ketamine hydrochloride were fixed on a work-bench, and a sample compound of the present invention as dissolved in 2 ml of […] was forcedly administered into its stomach via a stomach tube at a dose of 3 mg/kg. Before the administration and after the administration at a predetermined period of time, 3 ml (containing 1/10 times by volume of sodium citrate) of the blood was collected from the animal through its femoral vein. From the blood was obtained platelet-rich-plasma (PRP) of 300,000/μl, according to the De Marco et al's method (see J. clin. Invest., 77, 1272-1277, 1988). The PRP was adjusted at 3×10^8 /ml with an automatic blood cell counter (MEK-5158 Model, produced by Nihon Koden Co.) before use. Added thereto were 20 μM of ADP and 10 μg/ml of bovine tendon-derived collagen (produced by Niko Bioscience Co.) as triggers, whereby the aggregation of the platelets was caused in the PRP. The degree of the aggregation of the platelets was measured with a platelet aggregation meter (NBS Hematracer 801, produced by Niko Bioscience Co.). The platelet aggregation-inhibiting activity of the tested compound was represented by the inhibition percentage (%) relative to the maximum aggregation percentage of each animal before the addition of the compound thereto.

T1 sequence (P08514 32-887 limits assumed): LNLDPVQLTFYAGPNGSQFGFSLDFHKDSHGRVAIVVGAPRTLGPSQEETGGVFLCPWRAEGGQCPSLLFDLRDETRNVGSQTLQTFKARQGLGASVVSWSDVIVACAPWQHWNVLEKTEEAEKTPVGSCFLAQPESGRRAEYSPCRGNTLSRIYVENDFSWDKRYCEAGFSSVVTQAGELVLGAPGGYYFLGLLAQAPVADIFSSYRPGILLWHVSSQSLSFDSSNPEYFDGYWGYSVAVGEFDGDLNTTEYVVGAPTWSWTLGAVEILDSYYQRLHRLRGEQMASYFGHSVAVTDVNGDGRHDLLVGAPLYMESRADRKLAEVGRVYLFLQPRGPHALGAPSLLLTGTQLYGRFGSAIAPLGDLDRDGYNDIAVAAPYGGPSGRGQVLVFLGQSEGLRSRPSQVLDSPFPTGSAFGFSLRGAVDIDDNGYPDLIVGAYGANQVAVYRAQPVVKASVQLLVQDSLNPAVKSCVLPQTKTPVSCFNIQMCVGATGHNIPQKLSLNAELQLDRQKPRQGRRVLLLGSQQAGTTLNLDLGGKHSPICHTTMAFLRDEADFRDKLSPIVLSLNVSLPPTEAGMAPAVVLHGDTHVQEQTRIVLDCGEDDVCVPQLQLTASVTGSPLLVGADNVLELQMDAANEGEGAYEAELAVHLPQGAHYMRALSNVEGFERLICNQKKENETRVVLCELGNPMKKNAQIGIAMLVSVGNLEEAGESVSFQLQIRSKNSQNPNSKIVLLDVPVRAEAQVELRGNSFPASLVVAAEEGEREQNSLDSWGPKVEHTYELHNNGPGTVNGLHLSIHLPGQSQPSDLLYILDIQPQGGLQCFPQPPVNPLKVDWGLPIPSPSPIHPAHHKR
T1 sequence (P08514 891-1039 limits assumed): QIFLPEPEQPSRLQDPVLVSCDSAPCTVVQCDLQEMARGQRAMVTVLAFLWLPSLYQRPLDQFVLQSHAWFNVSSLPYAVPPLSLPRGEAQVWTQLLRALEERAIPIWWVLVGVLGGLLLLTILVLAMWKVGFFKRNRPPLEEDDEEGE
T1 sequence (P05106 27-788): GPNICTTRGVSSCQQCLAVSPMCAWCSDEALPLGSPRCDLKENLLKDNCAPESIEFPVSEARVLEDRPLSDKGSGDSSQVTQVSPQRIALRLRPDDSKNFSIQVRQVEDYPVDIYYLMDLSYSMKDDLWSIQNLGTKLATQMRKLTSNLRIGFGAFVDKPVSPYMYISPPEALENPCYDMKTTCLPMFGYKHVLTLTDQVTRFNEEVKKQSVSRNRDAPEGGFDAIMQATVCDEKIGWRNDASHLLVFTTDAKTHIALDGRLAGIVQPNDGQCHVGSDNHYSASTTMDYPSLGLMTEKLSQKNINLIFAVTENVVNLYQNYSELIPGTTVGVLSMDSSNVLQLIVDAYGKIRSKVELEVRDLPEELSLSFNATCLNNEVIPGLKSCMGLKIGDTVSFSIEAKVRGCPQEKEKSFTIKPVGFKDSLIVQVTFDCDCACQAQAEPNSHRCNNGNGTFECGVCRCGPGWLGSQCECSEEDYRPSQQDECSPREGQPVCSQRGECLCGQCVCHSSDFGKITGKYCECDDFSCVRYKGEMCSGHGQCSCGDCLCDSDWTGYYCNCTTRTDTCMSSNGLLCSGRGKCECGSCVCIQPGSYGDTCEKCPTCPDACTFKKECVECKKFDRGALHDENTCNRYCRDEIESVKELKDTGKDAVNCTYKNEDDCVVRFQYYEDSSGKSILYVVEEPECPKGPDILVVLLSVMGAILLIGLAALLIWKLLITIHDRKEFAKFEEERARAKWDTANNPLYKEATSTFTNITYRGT

| SMILES | IC50 (GPIIb/IIIa) | platelet aggregation-inhibition ratio (%), 2 hours after [1] | platelet aggregation-inhibition ratio (%), 4 hours after [1] | platelet aggregation-inhibition ratio (%), 6 hours after [1] | platelet aggregation-inhibition ratio (%), 9 hours after [1] | platelet aggregation-inhibition ratio (%), 12 hours after [1] | platelet aggregation-inhibition ratio (%), 24 hours after [1] |
| --- | --- | --- | --- | --- | --- | --- | --- |
| Cl.N=C(N)c1ccc(N2CCN(C3CCN(CC(=O)O)CC3CC(=O)O)CC2)cc1 (centres unmarked) [Example 8, 4-[4-(4-Amidinophenyl)-1-piperazinyl]-1,3-piperidinediacetic acid hydrochloride] | 8.4 nM | 57 ± 20% | 98 ± 1.0% | 98 ± 1.2% | 81 ± 19% | 100 ± 0% | 24 ± 9.1% |
| N=C(N)c1ccc(N2CC(=O)N(C3CCN(CC(=O)O)CC3)CC2=O)cc1 [Example 16, 4-[4-(4-amidinophenyl)-2,5-dioxo-1-piperazinyl]-1-piperidineacetic acid] | 10.4 nM |  |  |  |  |  |  |
| N=C(N)c1ccc(N2CCN(C3CCN(CC(=O)O)CC3)CC2=O)cc1 [Example 18, 4-[4-(4-Amidinophenyl)-3-oxo-1-piperazinyl]-1-piperidineacetic acid] |  | 86 ± 8.4% | 98 ± 0.9% | 75 ± 25% | 97 ± 1.7% | 99 ± 0.7% | 34 ± 11% |
